Experimental data taken from US11414377B2, “Modulator of metabotropic and ionotropic transmembrane receptors and use thereof” (IBD THERAPEUTICS LLC, priority 2018, dated 2022).

Columns and labels:
[1] = target: kappa opioid receptor (Homo sapiens, UniProt P41145); assay: Kappa-opioid receptor radioligand displacement ([3H]U69593); type: binding
[2] = Solubility remark in acute toxicity dosing; type: physicochemical; details: solvent 0.1% Tween-80 solution in water; 2000 mg/kg dose given in 2 administrations
Experimental: (§1) Compound I was administered to rats and mice intragastrically at a dose of 5000 mg/kg, intraperitoneally—at a dose of 2000 mg/kg. Control groups (female and male objects) were received a solvent (0.1% Tween-80 solution in water).

[3] = target: T1, TRPV1 ion channel (Homo sapiens, UniProt Q8NER1); assay: Effect on activity of TRPV1 ion channel (Fluo-4 AM calcium); type: cell-based; details: TRPV1 expressing CHO cells; Capsaicin 30 nM; intracellular calcium; read-out: IC50, blocker of TRPV1 ion channel
T1 construct: expressed in transfected cells; host or cells: CHO cells
Experimental: Compound I was dissolved in DMSO to a concentration of 100 mM; then the stock solution was serially diluted with DMSO to prepare a test solution with the concentration of substance equal to 50 μM. TRPV1 expressing CHO cells were used in the experiment. At the day of the experiment, the cells were incubated with a 4 μM of a solution of fluorescent indicator Fluo-4 AM. The cells after the preincubation with Capsaicin (30 nM), the known agonist of […] ion channel, were incubated with the test compound. The activity of receptors was determined by the intracellular calcium concentration using fluorescence spectroscopy (Behrendt, H. J. et al. (2004), Br. J. Pharmacol., 141: 737-745. FINAL).

[4] = target: recombinant human delta opioid receptor (Homo sapiens, UniProt P41143); assay: Delta-opioid receptor radioligand displacement ([3H]DADLE); type: binding
[5] = test system: male and female rats; assay: Acute toxicity at single administration, rats; type: in vivo; details: for Body weight gain / Death of animals: male and female; for Death of animals: 14 days observation
Experimental: (§2) The acute toxicity study was performed on 24 male and 24 female rats, and also on 24 male and 24 female mice. Before the administration of the Compound I, the body weight of the animals was recorded, after 1 hour of the administration, the state of the experimental animals was observed. Then, the body weights of rats and mice were recorded daily for 14 days after the administration of the substance, and the examination was carried out to detect the cases of death and abnormality in the state of the animals.
as §1

[6] = test system: male and female mice; assay: Acute toxicity at single administration, mice; type: in vivo; details: for Body weight gain / Death of animals: male and female; for Death of animals: 14 days observation
Experimental: as §2, §1

[7] = target: T2, human NK1R (Homo sapiens, UniProt P25103); assay: Effect on activity of tachykinin receptor type 1 (intracellular calcium, fluorescence); type: cell-based; details: U373 cells expressing human NK1R, agonist [Sar9,Met(O2)11]-SP 1 nM, read-out: IC50, antagonist of tachykinin receptor type 1
T2 construct: U373 cells expressing human NK1R were used in the experiment; endogenous in cells; host or cells: U373 cells
Experimental: Compound I was dissolved in DMSO to a concentration of 100 mM; then the stock solution was serially diluted with DMSO. The maximal start concentration of substance is 100 μM. The effect was determined at 8 concentrations of test compound, each concentration was investigated twice. U373 cells expressing human NK1R were used in the experiment, said cells after the preincubation with an agonist [Sar9,Met(O2)11]-SP (1 nM) were incubated with Compound I. The activity of receptors was determined by the intracellular calcium concentration using fluorescence spectroscopy (Glia. 1992; 6(2):89-95).

[8] = target: T3, NK3R (Homo sapiens, UniProt P29371); assay: Effect on activity of tachykinin receptor type 3 (intracellular calcium, fluorescence); type: cell-based; details: CHO-K1 cells expressing NK3R, agonist [MePhe10]-NKB 1 nM, read-out: IC50, antagonist of tachykinin receptor type 3
T3 construct: expressed in transfected cells; host or cells: CHO-K1 cells
T3 sequence (P29371 1-465): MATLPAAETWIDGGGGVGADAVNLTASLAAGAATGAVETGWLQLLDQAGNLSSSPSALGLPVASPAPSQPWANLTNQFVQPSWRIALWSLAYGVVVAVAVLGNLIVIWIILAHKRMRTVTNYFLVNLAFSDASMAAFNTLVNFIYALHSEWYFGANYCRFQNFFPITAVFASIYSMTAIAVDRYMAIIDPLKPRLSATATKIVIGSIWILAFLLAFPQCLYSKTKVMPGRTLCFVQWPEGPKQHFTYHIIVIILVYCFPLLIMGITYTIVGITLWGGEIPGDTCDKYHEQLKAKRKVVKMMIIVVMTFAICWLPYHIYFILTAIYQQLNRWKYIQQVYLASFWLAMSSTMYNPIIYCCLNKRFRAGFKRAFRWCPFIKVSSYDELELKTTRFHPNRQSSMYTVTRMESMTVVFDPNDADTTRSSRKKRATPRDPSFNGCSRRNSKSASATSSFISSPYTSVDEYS
Experimental: Compound I was dissolved in DMSO to a concentration of 100 mM; then the stock solution was serially diluted with DMSO. The maximal start concentration of substance is 100 μM. The effect was determined at 5 concentrations of test compounds, each concentration was investigated twice. CHO-K1 cells expressing NK3R were used in the experiment, said cells after the preincubation with an agonist [MePhe10]-NKB (1 nM) were incubated with the test compound. The activity of receptors was determined by the intracellular calcium concentration using fluorescence spectroscopy (Br J Pharmacol. 1999 October; 128(3):627-36).

[9] = intragastrically 5000 mg/kg, intraperitoneally 2000 mg/kg

T1 sequence (Q8NER1 whole entry): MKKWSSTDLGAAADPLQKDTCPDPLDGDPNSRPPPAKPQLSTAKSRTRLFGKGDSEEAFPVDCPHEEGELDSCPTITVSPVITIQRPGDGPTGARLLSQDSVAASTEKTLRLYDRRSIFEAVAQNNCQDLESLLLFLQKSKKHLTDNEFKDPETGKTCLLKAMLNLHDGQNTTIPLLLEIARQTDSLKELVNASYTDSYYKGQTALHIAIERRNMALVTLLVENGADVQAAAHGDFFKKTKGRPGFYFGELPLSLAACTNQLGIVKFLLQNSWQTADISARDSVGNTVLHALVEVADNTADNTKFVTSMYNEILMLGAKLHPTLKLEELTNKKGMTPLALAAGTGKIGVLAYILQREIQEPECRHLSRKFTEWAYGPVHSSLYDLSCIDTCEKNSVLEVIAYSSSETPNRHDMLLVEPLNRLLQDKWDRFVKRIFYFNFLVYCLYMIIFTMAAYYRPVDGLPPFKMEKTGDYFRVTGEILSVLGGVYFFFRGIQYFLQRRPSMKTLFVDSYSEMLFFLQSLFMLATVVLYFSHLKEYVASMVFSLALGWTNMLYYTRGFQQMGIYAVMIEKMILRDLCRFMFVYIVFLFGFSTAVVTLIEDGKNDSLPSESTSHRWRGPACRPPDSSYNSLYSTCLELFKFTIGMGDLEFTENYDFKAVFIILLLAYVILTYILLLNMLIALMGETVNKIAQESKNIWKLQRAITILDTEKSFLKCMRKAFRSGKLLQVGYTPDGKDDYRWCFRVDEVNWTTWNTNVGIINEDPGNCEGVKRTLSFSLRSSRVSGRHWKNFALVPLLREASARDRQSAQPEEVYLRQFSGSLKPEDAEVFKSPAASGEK
T2 sequence (P25103 whole entry): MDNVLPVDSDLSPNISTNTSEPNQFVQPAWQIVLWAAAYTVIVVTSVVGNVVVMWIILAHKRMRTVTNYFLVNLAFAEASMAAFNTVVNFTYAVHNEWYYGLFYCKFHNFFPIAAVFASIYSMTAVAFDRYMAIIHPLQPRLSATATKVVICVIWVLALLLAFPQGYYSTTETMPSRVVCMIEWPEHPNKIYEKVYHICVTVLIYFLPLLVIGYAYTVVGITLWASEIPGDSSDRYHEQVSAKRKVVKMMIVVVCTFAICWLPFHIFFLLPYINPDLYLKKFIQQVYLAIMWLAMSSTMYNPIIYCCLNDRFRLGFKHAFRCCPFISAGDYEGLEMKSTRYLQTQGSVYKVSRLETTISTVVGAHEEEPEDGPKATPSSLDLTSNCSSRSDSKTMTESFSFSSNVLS
Sequence of kappa opioid receptor (P41145 whole entry): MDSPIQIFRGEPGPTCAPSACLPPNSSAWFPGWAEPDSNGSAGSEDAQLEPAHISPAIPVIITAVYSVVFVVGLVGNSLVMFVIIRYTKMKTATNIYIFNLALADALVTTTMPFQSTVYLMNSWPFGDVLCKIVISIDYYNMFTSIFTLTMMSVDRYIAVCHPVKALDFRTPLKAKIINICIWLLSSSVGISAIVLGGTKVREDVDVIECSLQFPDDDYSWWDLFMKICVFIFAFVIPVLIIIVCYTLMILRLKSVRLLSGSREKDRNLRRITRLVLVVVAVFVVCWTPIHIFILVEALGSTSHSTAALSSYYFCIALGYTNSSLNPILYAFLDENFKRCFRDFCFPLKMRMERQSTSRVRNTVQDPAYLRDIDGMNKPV
Sequence of recombinant human delta opioid receptor (P41143 whole entry): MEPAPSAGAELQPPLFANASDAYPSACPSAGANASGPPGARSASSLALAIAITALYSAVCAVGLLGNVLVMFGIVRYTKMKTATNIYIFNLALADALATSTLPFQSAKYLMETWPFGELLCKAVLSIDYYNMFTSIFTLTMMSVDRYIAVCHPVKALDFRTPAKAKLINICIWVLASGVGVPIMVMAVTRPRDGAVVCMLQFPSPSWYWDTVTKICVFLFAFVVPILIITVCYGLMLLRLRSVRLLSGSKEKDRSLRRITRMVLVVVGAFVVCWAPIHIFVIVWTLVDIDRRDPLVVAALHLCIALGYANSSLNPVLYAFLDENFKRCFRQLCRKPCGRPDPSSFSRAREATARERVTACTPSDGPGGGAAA

In the case of `O=C(Cc1ccc(O)cc1)N[C@@H](Cc1ccccc1)C(=O)NCCc1ccccc1` [Compound I, 2-phenylethylamide N-(p-hydroxyphenylacetyl)phenylalanine], the IC50 [1] is reported as 7.1 µM, the Solubility [2] is reported as “poor” and the IC50 [3] is reported as 51 µM. The IC50 [4] was 64 µM, the “Differences in the spontaneous behaviour, responses to the caused reactions” value [5, 9] was “not observed” and the Body weight gain ([5]; intragastrically 5000 mg/kg) was “lag in body weight gain”. The Death of animals ([5]; intragastrically 5000 mg/kg) was “did not cause death of animals”, the Body weight gain ([5]; intraperitoneally 2000 mg/kg) was “lag in body weight gain” and the Death of animals ([5]; intraperitoneally 2000 mg/kg) was “did not cause death of animals”. The “Differences in the spontaneous behaviour, responses to the caused reactions” value [6, 9] was “not observed”, the Body weight gain ([6]; intragastrically 5000 mg/kg) was “lag in body weight gain” and the Death of animals ([6]; intragastrically 5000 mg/kg) was “did not cause death of animals”. The Body weight gain ([6]; intraperitoneally 2000 mg/kg) was “lag in body weight gain”, the Death of animals ([6]; intraperitoneally 2000 mg/kg) was “did not cause death of animals” and the IC50 [7] was 59 µM. The IC50 [8] was 15 µM.
